Where a name gives a salt, the structure may show the parent alone.
Experiments:
Bile salt export pump = Bile salt export pump (Homo sapiens, UniProt O95342); test: Inhibition of human BSEP overexpressed in Sf9 cell membrane vesicles assessed as uptake of [3H]-taurocholate in presence of ATP measured after 15 to 20 mins by membrane vesicle transport assay; assay type: ADME, cell-based
[1] = biological target: ATP-binding cassette sub-family C member 3 (Homo sapiens, UniProt O15438); test: Inhibition of human MRP3 overexpressed in Sf9 insect cell membrane vesicles assessed as uptake of [3H]-estradiol-17beta-D-glucuronide in presence of ATP and GSH measured after 10 mins by membrane vesicle transport assay; assay type: ADME, cell-based
ATP-binding cassette sub-family C member 3, sequence (O15438 whole entry): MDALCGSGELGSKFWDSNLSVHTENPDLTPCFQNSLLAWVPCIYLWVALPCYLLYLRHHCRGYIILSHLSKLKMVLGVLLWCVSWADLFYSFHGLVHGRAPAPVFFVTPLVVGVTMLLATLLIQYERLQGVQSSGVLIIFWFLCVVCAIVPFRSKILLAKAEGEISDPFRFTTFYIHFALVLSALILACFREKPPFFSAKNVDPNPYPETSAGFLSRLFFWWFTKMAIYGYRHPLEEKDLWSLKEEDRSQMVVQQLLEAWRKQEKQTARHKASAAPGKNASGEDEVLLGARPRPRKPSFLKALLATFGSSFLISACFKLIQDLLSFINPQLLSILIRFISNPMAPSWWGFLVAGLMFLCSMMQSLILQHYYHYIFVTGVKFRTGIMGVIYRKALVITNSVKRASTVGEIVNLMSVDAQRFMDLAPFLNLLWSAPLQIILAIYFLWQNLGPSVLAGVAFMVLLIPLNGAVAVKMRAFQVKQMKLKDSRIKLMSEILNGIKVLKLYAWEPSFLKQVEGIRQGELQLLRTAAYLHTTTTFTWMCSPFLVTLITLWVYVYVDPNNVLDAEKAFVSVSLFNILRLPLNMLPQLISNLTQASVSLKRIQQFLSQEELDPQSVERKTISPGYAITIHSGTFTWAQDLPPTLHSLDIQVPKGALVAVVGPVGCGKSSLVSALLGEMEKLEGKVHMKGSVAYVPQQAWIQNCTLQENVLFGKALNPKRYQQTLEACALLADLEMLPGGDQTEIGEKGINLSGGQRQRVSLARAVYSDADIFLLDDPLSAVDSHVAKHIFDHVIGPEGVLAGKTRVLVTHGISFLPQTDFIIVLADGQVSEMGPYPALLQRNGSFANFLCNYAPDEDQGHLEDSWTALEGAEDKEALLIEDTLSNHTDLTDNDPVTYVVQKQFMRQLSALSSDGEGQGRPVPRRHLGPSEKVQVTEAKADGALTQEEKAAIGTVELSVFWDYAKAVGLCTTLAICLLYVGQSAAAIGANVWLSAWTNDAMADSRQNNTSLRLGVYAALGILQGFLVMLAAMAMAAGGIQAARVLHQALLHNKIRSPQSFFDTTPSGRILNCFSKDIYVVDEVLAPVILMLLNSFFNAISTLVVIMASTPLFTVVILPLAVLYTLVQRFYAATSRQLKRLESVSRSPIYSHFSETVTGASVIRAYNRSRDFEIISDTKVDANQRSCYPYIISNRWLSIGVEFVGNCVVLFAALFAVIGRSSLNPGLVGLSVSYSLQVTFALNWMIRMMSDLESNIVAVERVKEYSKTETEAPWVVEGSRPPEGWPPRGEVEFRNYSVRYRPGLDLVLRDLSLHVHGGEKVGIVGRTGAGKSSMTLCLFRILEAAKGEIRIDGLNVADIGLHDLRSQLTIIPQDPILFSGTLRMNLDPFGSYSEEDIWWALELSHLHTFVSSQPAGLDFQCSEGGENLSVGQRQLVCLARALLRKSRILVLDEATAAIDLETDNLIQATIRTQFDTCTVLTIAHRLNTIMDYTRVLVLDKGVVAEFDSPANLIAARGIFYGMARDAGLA

[2] = biological target: ATP-binding cassette sub-family C member 2 (Homo sapiens, UniProt Q92887); test: Inhibition of human MRP2 overexpressed in Sf9 cell membrane vesicles assessed as uptake of [3H]-estradiol-17beta-D-glucuronide in presence of ATP and GSH measured after 20 mins by membrane vesicle transport assay
ATP-binding cassette sub-family C member 2, sequence (Q92887 whole entry): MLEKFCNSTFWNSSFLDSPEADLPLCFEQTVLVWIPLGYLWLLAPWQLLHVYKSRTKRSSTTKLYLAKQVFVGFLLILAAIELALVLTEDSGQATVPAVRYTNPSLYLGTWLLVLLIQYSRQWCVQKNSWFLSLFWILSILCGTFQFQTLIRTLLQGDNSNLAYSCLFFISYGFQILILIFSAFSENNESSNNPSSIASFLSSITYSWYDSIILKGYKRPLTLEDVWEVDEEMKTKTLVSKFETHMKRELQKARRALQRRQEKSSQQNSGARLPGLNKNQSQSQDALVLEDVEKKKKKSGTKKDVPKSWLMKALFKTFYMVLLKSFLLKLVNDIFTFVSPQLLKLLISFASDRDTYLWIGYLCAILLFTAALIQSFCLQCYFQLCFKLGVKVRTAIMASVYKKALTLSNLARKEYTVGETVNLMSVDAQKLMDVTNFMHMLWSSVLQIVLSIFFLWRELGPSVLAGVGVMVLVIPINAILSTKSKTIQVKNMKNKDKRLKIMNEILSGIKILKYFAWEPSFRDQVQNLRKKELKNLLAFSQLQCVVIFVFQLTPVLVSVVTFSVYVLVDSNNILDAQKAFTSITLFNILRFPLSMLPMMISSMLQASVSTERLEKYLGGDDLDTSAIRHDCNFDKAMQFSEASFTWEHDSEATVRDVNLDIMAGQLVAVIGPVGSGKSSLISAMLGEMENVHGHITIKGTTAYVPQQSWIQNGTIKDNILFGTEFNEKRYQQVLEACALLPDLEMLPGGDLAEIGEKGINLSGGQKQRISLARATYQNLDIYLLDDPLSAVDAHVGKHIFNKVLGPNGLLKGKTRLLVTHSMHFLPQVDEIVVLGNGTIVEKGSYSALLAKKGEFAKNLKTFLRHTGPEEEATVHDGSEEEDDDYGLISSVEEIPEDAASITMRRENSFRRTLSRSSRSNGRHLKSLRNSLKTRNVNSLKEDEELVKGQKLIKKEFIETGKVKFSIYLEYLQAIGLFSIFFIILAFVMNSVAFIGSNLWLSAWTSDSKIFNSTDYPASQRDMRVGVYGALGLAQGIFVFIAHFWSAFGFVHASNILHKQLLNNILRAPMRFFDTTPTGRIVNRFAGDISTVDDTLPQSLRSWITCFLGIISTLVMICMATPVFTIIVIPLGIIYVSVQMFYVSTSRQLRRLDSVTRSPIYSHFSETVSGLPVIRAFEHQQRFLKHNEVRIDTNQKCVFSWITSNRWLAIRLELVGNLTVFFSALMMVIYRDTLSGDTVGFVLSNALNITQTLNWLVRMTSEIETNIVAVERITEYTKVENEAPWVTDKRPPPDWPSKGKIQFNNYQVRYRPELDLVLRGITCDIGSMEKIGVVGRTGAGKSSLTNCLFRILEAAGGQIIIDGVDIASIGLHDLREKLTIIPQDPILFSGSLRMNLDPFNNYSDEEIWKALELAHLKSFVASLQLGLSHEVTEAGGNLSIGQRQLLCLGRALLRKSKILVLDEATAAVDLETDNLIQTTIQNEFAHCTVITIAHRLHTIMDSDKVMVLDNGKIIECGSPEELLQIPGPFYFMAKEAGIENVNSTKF

[3] = biological target: T1, ATP-binding cassette sub-family C member 4 (Homo sapiens, UniProt O15439); test: Inhibition of human MRP4 overexpressed in Sf9 cell membrane vesicles assessed as uptake of [3H]-estradiol-17beta-D-glucuronide in presence of ATP and GSH measured after 20 mins by membrane vesicle transport assay; assay type: ADME, cell-based
T1 sequence (O15439 whole entry): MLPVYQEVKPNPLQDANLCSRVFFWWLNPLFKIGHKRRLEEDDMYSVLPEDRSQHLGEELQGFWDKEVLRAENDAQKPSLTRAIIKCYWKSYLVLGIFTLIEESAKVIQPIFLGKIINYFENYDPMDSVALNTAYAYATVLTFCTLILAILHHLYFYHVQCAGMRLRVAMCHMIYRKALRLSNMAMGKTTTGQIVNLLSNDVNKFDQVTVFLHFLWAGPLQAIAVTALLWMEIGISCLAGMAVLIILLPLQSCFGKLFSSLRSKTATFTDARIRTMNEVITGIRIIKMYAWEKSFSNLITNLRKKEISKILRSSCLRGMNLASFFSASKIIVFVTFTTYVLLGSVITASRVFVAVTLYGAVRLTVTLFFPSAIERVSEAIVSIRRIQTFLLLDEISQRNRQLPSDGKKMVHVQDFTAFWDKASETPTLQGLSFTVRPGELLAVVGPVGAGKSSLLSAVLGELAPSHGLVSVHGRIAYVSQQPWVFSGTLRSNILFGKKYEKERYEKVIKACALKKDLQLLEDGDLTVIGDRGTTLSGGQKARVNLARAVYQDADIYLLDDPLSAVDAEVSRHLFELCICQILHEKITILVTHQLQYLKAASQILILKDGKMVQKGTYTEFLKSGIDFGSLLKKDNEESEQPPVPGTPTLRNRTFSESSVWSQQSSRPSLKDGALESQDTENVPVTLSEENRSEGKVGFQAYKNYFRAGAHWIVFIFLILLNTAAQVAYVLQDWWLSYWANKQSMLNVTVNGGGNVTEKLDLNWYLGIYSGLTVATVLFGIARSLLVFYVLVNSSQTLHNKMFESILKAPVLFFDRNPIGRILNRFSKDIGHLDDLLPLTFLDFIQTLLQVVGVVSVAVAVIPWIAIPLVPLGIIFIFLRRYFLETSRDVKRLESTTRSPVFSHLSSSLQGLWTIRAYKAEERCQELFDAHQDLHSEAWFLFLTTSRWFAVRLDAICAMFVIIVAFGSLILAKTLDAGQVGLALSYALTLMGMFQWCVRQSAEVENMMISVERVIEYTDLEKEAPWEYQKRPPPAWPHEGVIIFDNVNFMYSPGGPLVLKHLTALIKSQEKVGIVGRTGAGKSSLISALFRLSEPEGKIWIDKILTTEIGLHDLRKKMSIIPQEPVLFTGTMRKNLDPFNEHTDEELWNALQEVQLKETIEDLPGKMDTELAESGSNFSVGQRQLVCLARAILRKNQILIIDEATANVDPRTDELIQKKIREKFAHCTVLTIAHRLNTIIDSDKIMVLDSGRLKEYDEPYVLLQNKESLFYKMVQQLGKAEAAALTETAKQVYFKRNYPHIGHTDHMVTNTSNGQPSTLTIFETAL

Bile salt export pump, sequence (O95342 whole entry): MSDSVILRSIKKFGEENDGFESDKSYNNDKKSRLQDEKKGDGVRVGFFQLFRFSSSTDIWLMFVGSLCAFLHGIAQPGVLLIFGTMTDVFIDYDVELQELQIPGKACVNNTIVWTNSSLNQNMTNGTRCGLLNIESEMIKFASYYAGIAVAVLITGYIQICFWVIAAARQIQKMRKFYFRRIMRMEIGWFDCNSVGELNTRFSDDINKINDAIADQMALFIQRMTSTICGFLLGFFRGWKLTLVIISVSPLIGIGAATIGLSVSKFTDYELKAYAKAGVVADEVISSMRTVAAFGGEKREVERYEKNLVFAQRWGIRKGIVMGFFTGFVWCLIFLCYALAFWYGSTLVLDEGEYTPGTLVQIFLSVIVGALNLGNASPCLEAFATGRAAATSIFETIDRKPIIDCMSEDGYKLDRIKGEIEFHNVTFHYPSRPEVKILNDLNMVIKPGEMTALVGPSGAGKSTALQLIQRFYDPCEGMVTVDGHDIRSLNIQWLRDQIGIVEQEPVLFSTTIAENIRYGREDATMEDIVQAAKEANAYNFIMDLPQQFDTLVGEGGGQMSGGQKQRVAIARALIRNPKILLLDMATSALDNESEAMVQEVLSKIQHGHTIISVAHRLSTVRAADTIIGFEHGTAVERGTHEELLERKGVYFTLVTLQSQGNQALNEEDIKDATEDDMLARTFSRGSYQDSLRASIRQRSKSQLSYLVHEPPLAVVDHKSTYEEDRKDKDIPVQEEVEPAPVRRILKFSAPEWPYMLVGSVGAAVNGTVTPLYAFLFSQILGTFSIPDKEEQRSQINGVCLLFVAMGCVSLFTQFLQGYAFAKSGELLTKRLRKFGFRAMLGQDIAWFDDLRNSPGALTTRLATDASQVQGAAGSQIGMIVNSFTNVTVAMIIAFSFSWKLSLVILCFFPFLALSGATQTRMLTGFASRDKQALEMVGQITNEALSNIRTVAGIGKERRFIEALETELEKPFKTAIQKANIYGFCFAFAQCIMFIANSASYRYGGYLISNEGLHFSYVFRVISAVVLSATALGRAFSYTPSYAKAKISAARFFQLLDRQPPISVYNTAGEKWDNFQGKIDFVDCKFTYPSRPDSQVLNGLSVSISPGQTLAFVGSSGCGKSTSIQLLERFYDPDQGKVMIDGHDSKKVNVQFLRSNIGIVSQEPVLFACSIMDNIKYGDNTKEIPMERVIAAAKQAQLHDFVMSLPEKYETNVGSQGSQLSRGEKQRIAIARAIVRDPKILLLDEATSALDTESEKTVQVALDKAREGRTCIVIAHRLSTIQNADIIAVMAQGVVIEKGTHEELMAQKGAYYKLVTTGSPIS

Compound	IC50 (Bile salt export pump) [µM]	IC50 [1] [µM]	IC50 [2] [µM]	IC50 [3] [µM]
COc1cccc([C@]2(O)CCCC[C@H]2CN(C)C)c1	> 133	–	–	–
C[C@@H](O)[C@H]1C(=O)N2C(C(=O)O)=C(SCCN=CN)C[C@H]12	> 133	–	–	–
COc1cc2nc(N(C)CCCNC(=O)C3CCCO3)nc(N)c2cc1OC (configuration not stated) [ALFUZOSIN HYDROCHLORIDE]	> 133	–	–	–
COCCCOc1cc(C[C@@H](C[C@H](N)[C@@H](O)C[C@H](C(=O)NCC(C)(C)C(N)=O)C(C)C)C(C)C)ccc1OC [ALISKIREN FUMARATE]	> 133	–	–	–
O=C(O)[C@H]1/C(=C/CO)O[C@@H]2CC(=O)N21 [CLAVULANATE POTASSIUM]	> 133	–	–	–
NC(=O)NO [HYDROXYUREA]	–	> 133	> 133	> 133
CN(C)CCCN1c2ccccc2CCc2ccccc21 [IMIPRAMINE]	–	> 133	> 133	> 133
Nc1ccn([C@@H]2CS[C@H](CO)O2)c(=O)n1 [LAMIVUDINE]	–	> 133	> 133	> 133
Nc1nnc(-c2cccc(Cl)c2Cl)c(N)n1 [LAMOTRIGINE]	> 133	–	–	–
N#Cc1ccc(C(c2ccc(C#N)cc2)n2cncn2)cc1 [LETROZOLE]	> 133	–	–	–
CCN(CC)CC(=O)Nc1c(C)cccc1C [LIDOCAINE]	–	> 133	> 133	> 133
NCCCC[C@H](N[C@@H](CCc1ccccc1)C(=O)O)C(=O)N1CCC[C@H]1C(=O)O [LISINOPRIL ANHYDROUS]	–	> 133	> 133	> 133
Cc1ccc(Nc2c(F)cccc2Cl)c(CC(=O)O)c1 [LUMIRACOXIB]	–	> 133	> 133	> 133
CNCCCC12CCC(c3ccccc31)c1ccccc12 [MAPROTILINE]	–	> 133	> 133	> 133
COC(=O)Nc1nc2ccc(C(=O)c3ccccc3)cc2[nH]1 [MEBENDAZOLE]	–	> 133	> 133	15.5
Sc1ncnc2nc[nH]c12 [MERCAPTOPURINE ANHYDROUS]	> 133	–	–	–
CN(C)C(=N)N=C(N)N [METFORMIN]	–	> 133	> 133	> 133
Cn1cc[nH]c1=S [METHIMAZOLE]	–	> 133	> 133	> 133
COCCc1ccc(OCC(O)CNC(C)C)cc1 (configuration not stated) [METOPROLOL]	–	> 133	> 133	> 133
Cc1ncc([N+](=O)[O-])n1CCO [METRONIDAZOLE]	–	> 133	> 133	> 133
Nc1cc(N2CCCCC2)nc(N)[n+]1[O-] [MINOXIDIL]	–	> 133	> 133	> 133
CN1CCN2c3ncccc3Cc3ccccc3C2C1 (configuration not stated) [MIRTAZAPINE]	–	> 133	> 133	> 133
COCCOC(=O)C1=C(C)NC(C)=C(C(=O)OC(C)C)C1c1cccc([N+](=O)[O-])c1 (configuration not stated) [NIMODIPINE]	–	> 133	> 133	> 133
O=C1CN(/N=C/c2ccc([N+](=O)[O-])o2)C(=O)N1 [NITROFURANTOIN]	–	> 133	> 133	20.9

Compound	IC50 (Bile salt export pump) [µM]	IC50 [1] [µM]	IC50 [2] [µM]	IC50 [3] [µM]
CCn1cc(C(=O)O)c(=O)c2cc(F)c(N3CCNCC3)cc21 [NORFLOXACIN]	–	> 133	> 133	> 133
CC(C)(S)[C@@H](N)C(=O)O [PENICILLAMINE]	> 133	–	–	–
OC[C@H]1O[C@@H](n2cnc3c2NC=NC[C@H]3O)C[C@@H]1O [PENTOSTATIN]	> 133	–	–	–
CC(C)NCC(O)COc1cccc2[nH]ccc12 (configuration not stated) [PINDOLOL]	–	> 133	> 133	> 133
C[C@]12C=CC(=O)C=C1CC[C@@H]1[C@@H]2[C@@H](O)C[C@@]2(C)[C@H]1CC[C@]2(O)C(=O)CO [PREDNISOLONE]	–	> 133	> 133	> 133
CCN(CC)CCNC(=O)c1ccc(N)cc1 [PROCAINAMIDE]	–	> 133	> 133	> 133
CN1CCN(CCCN2c3ccccc3Sc3ccc(Cl)cc32)CC1 [PROCHLORPERAZINE]	–	> 133	> 133	> 133
OC(CCN1CCCC1)(c1ccccc1)C1CCCCC1 (configuration not stated) [PROCYCLIDINE]	–	> 133	> 133	> 133
CC(C)NCC(O)COc1cccc2ccccc12 (configuration not stated) [PROPRANOLOL]	–	> 133	> 133	> 133
OCCOCCN1CCN(C2=Nc3ccccc3Sc3ccccc32)CC1 [QUETIAPINE FUMARATE]	–	> 133	> 133	> 133
CNC(=C[N+](=O)[O-])NCCSCc1ccc(CN(C)C)o1 [RANITIDINE]	–	> 133	> 133	> 133
Cc1nc2n(c(=O)c1CCN1CCC(c3noc4cc(F)ccc34)CC1)CCCC2 [RISPERIDONE]	–	> 133	> 133	> 133
N#C[C@@H]1C[C@@H]2C[C@@H]2N1C(=O)[C@@H](N)C12CC3CC(CC(O)(C3)C1)C2 [SAXAGLIPTIN HYDROCHLORIDE]	–	> 133	> 133	> 133
CN[C@@H]1C[C@H]2O[C@@](C)([C@@H]1OC)n1c3ccccc3c3c4c(c5c6ccccc6n2c5c31)C(=O)NC4 [STAUROSPORINE]	–	> 133	> 133	37.9
CC/C(=C(\c1ccccc1)c1ccc(OCCN(C)C)cc1)c1ccccc1 [TAMOXIFEN]	–	> 133	> 133	> 133
C[C@]12CC[C@H]3[C@@H](CCC4=CC(=O)CC[C@@]43C)[C@@H]1CC[C@@H]2O [TESTOSTERONE]	–	> 133	> 133	> 133
CN(C)[C@@H]1C(O)=C(C(N)=O)C(=O)[C@@]2(O)C(O)=C3C(=O)c4c(O)cccc4[C@@](C)(O)[C@H]3C[C@@H]12 [TETRACYCLINE]	–	> 133	> 133	> 133
COc1c(O[C@@H]2O[C@H](CO)[C@@H](O)[C@H](O)[C@H]2O)cc2c(c1OC)-c1ccc(SC)c(=O)cc1[C@@H](NC(C)=O)CC2 [THIOCOLCHICOSIDE]	> 133	–	–	–
Clc1ccccc1CN1CCc2sccc2C1 [TICLOPIDINE HYDROCHLORIDE]	–	> 133	> 133	> 133
CCS(=O)(=O)CCn1c([N+](=O)[O-])cnc1C [TINIDAZOLE]	–	> 133	> 133	> 133
Cc1ccc(O)c([C@H](CCN(C(C)C)C(C)C)c2ccccc2)c1 [TOLTERODINE TARTRATE]	–	> 133	> 133	> 133
CC(C)[C@@H]1NC(=O)[C@H](C)OC(=O)[C@@H](C(C)C)NC(=O)[C@@H](C(C)C)OC(=O)[C@H](C(C)C)NC(=O)[C@H](C)OC(=O)[C@@H](C(C)C)NC(=O)[C@@H](C(C)C)OC(=O)[C@H](C(C)C)NC(=O)[C@H](C)OC(=O)[C@@H](C(C)C)NC(=O)[C@@H](C(C)C)OC1=O [VALINOMYCIN]	–	> 133	> 133	> 133
C[C@@H](c1ncncc1F)[C@](O)(Cn1cncn1)c1ccc(F)cc1F [VORICONAZOLE]	–	> 133	> 133	> 133
COC[C@H]1OC(=O)c2coc3c2[C@@]1(C)C1=C(C3=O)[C@@H]2CCC(=O)[C@@]2(C)C[C@H]1OC(C)=O [WORTMANNIN]	–	> 133	46.1	63.2

Source: ChEMBL document CHEMBL4028801, “A multifactorial approach to hepatobiliary transporter assessment enables improved therapeutic compound development” (Toxicol Sci, 2013)
